Values quoted from earlier work, collected in patent US5043321A, “Adrenocorticotropin release inhibiting factor” (Center for Innovative Technology, priority 1988, dated 1991).
No end group written: not given here.

Key:
[1] = tested on: hemorrhage induced corticosterone secretion; conditions: Hattori et al
[2] = tested on: rat anterior pituitary gland; conditions: Okajima et al

Substance	effect on hemorrhage induced corticosterone secretion in vivo [1]	effect on plasma ACTH ([1]; preliminary study)	most effective concentration for inhibition of ACTH secretion [2] [nM]	effect on CRF induced ACTH secretion ([2]; rat anterior pituitary gland in vitro)
alpha-hANP: alpha-hANP (presumably ANF[1-28]) used by Hattori et al (SLRRSSCFGGRMDRIGAQSGLGCNSFRY; ends and bridges not checked; cysteine pairing not given here; UniProt P01160 124-151, looked up)	no effect	inhibition of plasma ACTH that was not dose dependent	–	–
delta sleep inducing peptide [DSIP]	–	–	10	inhibits CRF induced ACTH secretion
